# What was measured:
# [1] = LD50 p.o. (acute toxicity); conditions: in vivo, po, species not given
# [2] = tested on: central nervous system; test: Central nervous system effects (anticonvulsive, rotarod muscle relaxation, sedative tests); type: in vivo; conditions: in the dosage utilized
# [3] = tested on: liver microsomal enzyme; test: Enzyme inductive effect (shortening of hexobarbital sleeping time in Wistar female rats); type: in vivo; conditions: for Mean duration of sleeping ± S.E.: 60 mg./kg. p.o., 24 hours later hexobarbital 40 mg./kg. i.v., female Wistar rats, control 19.4 ± 1.88
# Description: As reference substances, phenobarbital and phenacetine were used in the experiments. The pharmacological tests were carried out as follows:
# To investigate the enzyme inductive effect, Wistar female rats, each weighing 40 to 50 g. were treated with pure solvent, or with a dosage of 60 mg./kg. of phenobarbital or the compound to be tested, respectively. 24 hours after this treatment 40 mg./kg. of hexobarbital were administered intravenously into the animals. The reduction of the elimination period and the liver enzyme induction was expressed as the shortening of the duration of sleeping.
# [4] = Antipyretic effect (rectal temperature after yeast suspension and pyrago in male rats); type: in vivo; conditions: 40 mg./kg. orally, yeast and pyrago fever, recorded for 5 hours
# Description: To test the antipyretic effect, a 15% yeast suspension was administered to male rats each weighing 180 ±10 g. No food was given to the animals, they could consume, however, arbitrary amount of water. 16 hours after the administration of yeast the rectal body temperature of the animals was taken, and the animals were treated with pyrago in an intravenous dosage of 50 M bact./animal. The compound to be tested was administered orally into the animals, thereafter the change in rectal temperature both for the treated and the control animals was recorded for 5 hours, using an "Elab" type electrothermometer. Phenacetine, used as reference substance, and the compounds of the invention were administered in dosages of 40 mg./kg. body weight.
# [5] = tested on: central nervous system; conditions: known effects at the test animals; cited from earlier work
SMILES,LD50 [1] [mg/kg],Decrease of temperature [4] [°C],further results
"O=C(c1ccccc1)c1ccc(N2CCOCC2)c([N+](=O)[O-])c1 [Example B2, 3-nitro-4-morpholino-benzophenone]",1200,,"effect on the central nervous system [2]: no effect on the central nervous system; Mean duration of sleeping ± S.E. ([3]; * = p>0.05 (below a significance level of 5 %)): 14.6 ± 1.65 min; inductive effect ([3]; in words, compared with phenobarbital): the same as that of phenobarbital"
"CC(C)CN(CC(C)C)c1ccc(C(=O)c2ccccc2)cc1[N+](=O)[O-] [Example B9, 3-Nitro-4-(N.N-diisobutylamino)-benzophenone]",> 3000,-1.0,
"CC[N+]1(C)CCN(c2ccc(C(=O)c3ccccc3)cc2[N+](=O)[O-])CC1 [Example B11, 3-nitro-4-(N-methyl-piperazino)-benzophenone ethobromide]",> 3000,-1.1,
"CCOc1ccc(NC(C)=O)cc1 [Phenacetine, reference compound]",,-1.1,
"CCC1(c2ccccc2)C(=O)NC(=O)NC1=O [Phenobarbital, reference compound]",,,"effects on the central nervous system [5]: significant effects on the central nervous system, which manifests at the test animals in ataxia, sedatio and anticonvulsive effect; Mean duration of sleeping ± S.E. ([3]; * = (below a significance level of 5 %)): 14.2 ± 1.88 min"
